Positions of bridges follow the written chain, without caps; N, C: chain ends. No end group written: not given here.
Experiments:
[1] = freshly collected EDTA plasma from Sprague Dawley rats, 500 µL, spiked at 50 ng/mL, 2 h at 4 °C or room temperature, sampled every 30 min, HPLC-MS/MS, n = 2 per condition (method b35: 1 µM, 37 °C, human plasma)
platelets = test: Washed platelets flow cytometry analysis of activation (CD62P); format: cell-based, mouse; settings: washed platelets pooled from 4 treated ID8 tumor-bearing mice per group; resting and 3.33 U/mL thrombin; CD62P exposure
Protocol: Washed platelets were freshly prepared as described elsewhere from a pool of 4 mouse blood samples by treatment group (ID8 allograft i.p. model). […] To promote activation, platelets were incubated with 3.33 U.mL^−1 thrombin (#D8537, Sigma-Aldrich) for 5 min, at room temperature. Platelets were probed with both a (FITC)-conjugated monoclonal anti-CD41 antibody (clone MWReg30; #553848, BD Pharmingen) and a (PE)-conjugated monoclonal anti-CD62P antibody (clone Wug.E9; #M130-2, Emfret Analytics) for 10 min, at room temperature, in the dark. IgG1-PE (clone R3-34; #P190_2, Emfret Analytics) and IgG1-FITC (clone R3-34; #553924, BD Pharmingen) were employed as isotype controls. Platelet isolation was performed by gating in forward and side scatter, as well as relying on CD41 positivity, while CD62P (P-selectin) membrane exposure reflects platelet activation.
Figure S2. […] 8 weeks old female and
(a) Photographs of spleen isolated on
Whitney U test statistical analyses (* p < 0.05).
mice having received chronic TAX2 or combination therapy. Upon sacrifice, blood was collected from
samples by treatment group.
investigated by flow cytometry. Platelet population was isolated based on anti‐CD41 positivity,
Activation was analyzed on […]

[2] = 0.25 to 20 mg/mL in MilliQ water, 0.9% NaCl or 0.9% NaCl with 15 mM Tris; from lyophilized powder; A205, path length 0.05 cm, compared to powder weighing
Protocol: Absorbance values at 205 nm were measured on a NanoVue Plus^TM spectrophotometer (GE Healthcare, Chicago, IL, USA) using a quartz cuvette with a 0.05 cm path length.

[3] = test system: A2780 human ovarian carcinoma cells; settings: A2780 model, 10 mg/kg i.p. thrice a week for 2 weeks
Protocol: (§1) Suspensions of A2780 or SK-OV-3 human ovarian carcinoma cells were s.c. inoculated (5 × 10^6 cells in 200 µL per animal) into the left flank of BALB/c athymic nude mice. Tumor measurements (length, L; width, W) were performed twice a week, using a digital caliper, and total tumor volume was calculated according to V = 0.5 × L × W^2. For randomization, mice were allocated to groups (n = 13–16 in each) based on similar mean and distribution of tumor volume on day 13. […] Body weight (BW) was monitored every 2 to 3 days, while clinical signs and behavior pattern were daily checked until study termination. Loss of 15% BW or tumor volume exceeding 1 cm^3 were considered an indication for euthanasia, as well as severe tumor necrosis, as it was sometimes associated with loss of body fluid and/or infection.

[4] = test system: SK-OV-3 human ovarian carcinoma cells; settings: SK-OV-3 model, 10 mg/kg i.p. thrice a week for 7 weeks
Protocol: as §1

[5] = target: T1, recombinant mouse thrombospondin-1 with a C-terminal 6His tag (mouse, UniProt P35441 19-1170); test: SPR; Biacore T200; rmTSP-1 captured by its C-terminal 6His tag on anti-histidine antibody amine-coupled to a CM5 chip (2931 RU); peptides injected for 120 s at 30 uL/min, 25 °C; running buffer 10 mM HEPES, 0.15 M NaCl, 0.05% surfactant P20, 5 mM CaCl2, pH 7.4; single injections at 1 mM; single-cycle kinetics at 15.625-250 uM; contact-time experiment (30-600 s) at 500 uM TAX2; two-state reaction model, apparent KD; settings: both partners purified
T1 construct: thrombospondin-1 (TSP-1), mouse, recombinant; also called rmTSP-1; TSP-1; source: bought: R&D Systems (#7859-TH); not shown: 6His, C-terminal, kept
T1 sequence (P35441 19-1170): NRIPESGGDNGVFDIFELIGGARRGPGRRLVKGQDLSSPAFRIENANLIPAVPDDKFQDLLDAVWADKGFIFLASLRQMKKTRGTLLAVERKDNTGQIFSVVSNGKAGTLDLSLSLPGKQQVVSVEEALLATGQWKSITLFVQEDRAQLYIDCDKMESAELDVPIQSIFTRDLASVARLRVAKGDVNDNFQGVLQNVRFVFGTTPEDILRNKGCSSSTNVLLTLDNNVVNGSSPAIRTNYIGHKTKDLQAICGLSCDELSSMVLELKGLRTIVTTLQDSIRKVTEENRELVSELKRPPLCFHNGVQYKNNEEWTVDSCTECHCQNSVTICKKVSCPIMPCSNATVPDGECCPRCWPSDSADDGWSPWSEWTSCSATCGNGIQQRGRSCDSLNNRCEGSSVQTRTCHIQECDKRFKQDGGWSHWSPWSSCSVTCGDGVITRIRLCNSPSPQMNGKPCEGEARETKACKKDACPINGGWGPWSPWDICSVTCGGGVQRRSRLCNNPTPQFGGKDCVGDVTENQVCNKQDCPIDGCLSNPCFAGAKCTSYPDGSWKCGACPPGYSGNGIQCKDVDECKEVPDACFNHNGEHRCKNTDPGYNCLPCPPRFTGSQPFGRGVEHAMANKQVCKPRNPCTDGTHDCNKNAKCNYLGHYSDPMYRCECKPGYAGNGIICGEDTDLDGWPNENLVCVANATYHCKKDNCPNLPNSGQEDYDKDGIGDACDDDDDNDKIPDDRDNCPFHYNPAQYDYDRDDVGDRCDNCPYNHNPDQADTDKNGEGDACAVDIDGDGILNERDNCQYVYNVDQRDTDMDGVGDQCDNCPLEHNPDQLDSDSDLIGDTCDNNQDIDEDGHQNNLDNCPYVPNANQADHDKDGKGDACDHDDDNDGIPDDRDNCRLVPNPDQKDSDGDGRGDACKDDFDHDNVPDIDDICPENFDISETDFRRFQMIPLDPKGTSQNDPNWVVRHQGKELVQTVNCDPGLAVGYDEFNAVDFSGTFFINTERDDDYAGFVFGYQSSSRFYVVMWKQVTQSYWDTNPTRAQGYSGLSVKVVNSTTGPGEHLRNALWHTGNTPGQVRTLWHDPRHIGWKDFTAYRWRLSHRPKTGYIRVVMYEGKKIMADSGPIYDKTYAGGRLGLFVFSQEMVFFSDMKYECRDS

| binding result [5] | Molecule | stability in plasma (remaining TAX2, % of concentration at T0) [1] | impact on platelet ability to activate (platelets) | solubility in aqueous solvents [2] | safety (body weight, clinical signs) [3] | safety (body weight, clinical signs) [4] |
| --- | --- | --- | --- | --- | --- | --- |
| – | CC(C)C[C@@H]1NC(=O)[C@H](CC(C)C)NC(=O)[C@H](CCC(N)=O)NC(=O)[C@H](CO)NC(=O)[C@H](C(C)C)NC(=O)[C@H](CCC(=O)O)NC(=O)[C@@H](N)CSSC[C@@H](C(=O)O)NC(=O)[C@H](C)NC(=O)[C@H](CC(=O)O)NC(=O)CNC(=O)[C@H](CCCCN)NC1=O [TAX2] | remains stable in freshly collected plasma up to 2 hours | Neither TAX2 monotherapy nor combined to anti-PD-1 mAb had any impact | completely soluble | appeared to be safe | appeared to be safe |
| binds | CEVSQLLKGDAC (disulfide 1-12 (inferred); also: acetate salt, disulfide linked 12 amino-acid cyclic peptide stretch of CD47; The two end residues are replaced by cysteines to close the ring; also called TAX2 peptide; TAX2 drug candidate; source: synthetic peptide (solid-phase synthesis, Fmoc chemistry; Genecust), purity >98%) [TAX2 cyclic peptide] | – | – | – | – | – |
